Assay results taken from article PMC5766233, “Ternary copper(II) complex: NCI60 screening, toxicity studies, and evaluation of efficacy in xenograft models of nasopharyngeal carcinoma” (PLoS ONE, 2018).

How the values were obtained:
CYP 2C19 = CYP 2C19 (Homo sapiens, UniProt P33261); test: CYP450 inhibition assay, pooled human liver microsomes; settings: read-out: IC50 CYP 2C19; probe S-mephenytoin
Description: (§1) In the CYP inhibition assay, human liver microsomes were incubated with the Cu(II) complex or reference standard. The inhibitory effects of these compounds were investigated against the major CYP isoforms namely 1A2, 2C9, 2C19, 2D6, 2B6, 2C8 and 3A4 with their respective isoform probe substrates in one reaction mixture (pooled probe substrate format using LC-MS/MS).
(§2) Pooled human liver microsomes (Sekisui Xeno Tech, LLC., Kansas City, KS, USA) were incubated with different concentrations of Cu(II) complex or reference standards in buffer containing 0.1% DMSO for 10 min at 37°C and the residual enzyme activity was measured using pooled probe substrates method by pooled LC-MS/MS. Briefly, incubation mixtures were prepared in a total volume of 200 μL with final component concentrations as follows: 0.1 M potassium phosphate buffer (pH 7.4), 1.5 mM NADPH, and 0.25 mg/ml HLM. […] After 20 min of incubation, the reactions were terminated by addition of 200 μL ice-cold acetonitrile (Rankem, Avantor Performance Materials India Limited, Andhra Pradesh, India) containing telmisartan and carbamazepine as internal standards (all probe substrates and standards were from Sigma Aldrich). Each reaction mixture was centrifuged at 3,500 rpm for 5 min and the supernatant was subjected to LC-MS/MS analysis. The percent inhibition was calculated using the following equation: %Inhibition=100‑[(activityintestwells/activityinbasalcontrolwells)×100]

CYP 2C8 = target: T1, CYP 2C8 (Homo sapiens, UniProt P10632); test: as above; settings: read-out: IC50 CYP 2C8; probe amodiaquine
T1 sequence (P10632 1-490): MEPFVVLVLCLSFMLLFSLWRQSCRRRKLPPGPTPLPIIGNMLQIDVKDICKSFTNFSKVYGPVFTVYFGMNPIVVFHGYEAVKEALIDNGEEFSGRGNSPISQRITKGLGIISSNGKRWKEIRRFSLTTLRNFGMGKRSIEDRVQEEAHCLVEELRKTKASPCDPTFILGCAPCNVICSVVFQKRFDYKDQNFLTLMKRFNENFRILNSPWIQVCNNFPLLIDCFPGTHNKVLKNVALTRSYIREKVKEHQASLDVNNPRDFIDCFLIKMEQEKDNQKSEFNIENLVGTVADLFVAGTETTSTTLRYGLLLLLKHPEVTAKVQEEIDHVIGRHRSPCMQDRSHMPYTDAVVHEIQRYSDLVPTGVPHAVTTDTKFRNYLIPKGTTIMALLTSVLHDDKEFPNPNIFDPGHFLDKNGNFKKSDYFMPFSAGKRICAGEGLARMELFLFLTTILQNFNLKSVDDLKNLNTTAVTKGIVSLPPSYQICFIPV
Description: as §1, §2

[1] = tested on: C666-1-GFP-Luc2 xenograft; test: In vivo efficacy in C666-1-GFP-Luc2 xenograft model; design: species or system NOD scid gamma female mice
Description: Next, we assessed the anticancer efficacy of the Cu(II) complex on another NPC xenograft, the EBV positive C666-1-GFP-Luc2 cells. […] Two mice in this group completed the 14 doses but died on the last day of the experiment while one mouse died on day 13 after receiving 12 doses of the Cu(II) complex. […] Harvested major organs sections stained with hematoxylin and eosin dyes were also examined. […] Therefore, no toxicity was found in mice carrying nasopharyngeal C666-1-GFP-Luc2 when treated with Cu(II) complexes at the doses of 4 mg/kg and 5 mg/kg. The underlying cause of death, presumed to be due to toxicity at the dose of 6 mg/kg, could not be ascertained conclusively because although the liver size was smaller in the treated group, the histopathology of the liver appeared normal and no other abnormalities were detected other than lower spleen size.
2.0 x 10^6 HK1 or C666-1-GFP-Luc2 cells in 100 μl RPMI media mixed with matrigel (BD Matrigel Basement Membrane Matrix; BD Biosciences, Bedford, MA, USA) was inoculated subcutaneously into the right lower flank of the NSG mice. Tumor growth was monitored and measured every other day using a digital caliper (Mitutoyo America Corporation, Aurora, Illinois, USA) until they reached 100–250 mm^3. Then, the mice were randomly assigned into treatment groups. The mice bearing HK1 xenograft tumor were divided into 3 treatment groups and a control (normal saline) group. The first batch received normal saline (one injection daily for 5 days), 6 mg/kg (one injection daily for 5 days) and 8 mg/kg (one injection every other day for 3 doses) of Cu(II) complex while the second batch received normal saline (one injection daily for 4 days), 4 mg/kg (one injection daily for 4 days), 6 mg/kg (one injection daily for 4 days) and 8 mg/kg (one injection every other day for 2 doses) of Cu(II) complex via intraperitoneal route.
Subsequently, for the efficacy assay using mice bearing C666-1-GFP-Luc2 cells, 3 sets of control group versus experimental group were tested in three independent experiments. Mice were randomly assigned into 4, 5 or 6 mg/kg Cu(II) complex and their control groups respectively. Injections were given once daily for 12 to 18 days. Body weight change, food intake, signs of toxicity/morbidity as well as mortality were observed and recorded daily for the duration of the entire experiment. Tumor volumes were determined using a caliper thrice weekly. Tumor volumes were calculated according to the following formula: Tumor volume (mm^3) = (length [mm] X width^2 [mm^2])/2. At the end point of the studies, mice were placed under anesthesia for blood collection via submandibular and cardiac puncture before they were sacrificed for histopathological investigations. Tumors were harvested, imaged, weighed and fixed in formalin.
All H&E-stained tissue section slides were examined under Nikon Eclipse Ni microscope (Nikon Instruments Inc., New York, USA) and microscopic images were taken using 20x and 40x objectives. For H&E tumor section slides, the percentage of tumor necrosis was determined qualitatively using microscope by the histopathologist in order to estimate the percentage of necrotic area induced by the Cu(II) complex in the tumors. For determination of femoral bone marrow suppression, low power (10x magnification) objective was used to scan the slides while 100x magnification to assess the degree of cellularity and amount of fat present.
Firstly, 4 ml of rhodamine stock solution was combined with 46 ml of acetate buffer solution in order to prepare a working rhodamine solution. Tissue sections were prepared, deparaffinized and hydrated in distilled water. Then, a loosely capped staining jar containing working rhodamine was warmed in the microwave oven (Panasonic Corporation, Osaka, Japan). The slide with tissue section was placed in warmed working rhodamine solution and reheated using microwave oven. […]

Chain of CYP 2C19 (P33261 whole entry, canonical isoform): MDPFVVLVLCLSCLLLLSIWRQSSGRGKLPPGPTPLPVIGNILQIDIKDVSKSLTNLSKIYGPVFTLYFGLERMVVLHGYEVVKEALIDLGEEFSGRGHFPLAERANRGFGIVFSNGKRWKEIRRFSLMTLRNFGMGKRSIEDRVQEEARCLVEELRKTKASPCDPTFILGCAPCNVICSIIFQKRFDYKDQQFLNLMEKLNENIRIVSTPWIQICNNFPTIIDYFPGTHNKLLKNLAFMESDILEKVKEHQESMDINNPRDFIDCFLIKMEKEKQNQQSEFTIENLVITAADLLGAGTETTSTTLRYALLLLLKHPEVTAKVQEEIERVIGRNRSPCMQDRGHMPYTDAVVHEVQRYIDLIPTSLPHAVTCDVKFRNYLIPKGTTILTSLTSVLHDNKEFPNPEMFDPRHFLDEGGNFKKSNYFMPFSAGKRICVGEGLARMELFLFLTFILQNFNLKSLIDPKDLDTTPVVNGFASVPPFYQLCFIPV

CC(C)(N)C(=O)[O-].O.O=[N+]([O-])[O-].[Cu+2].c1cnc2c(c1)ccc1cccnc12 [Cu(II) complex, [Cu(phen)(C-dmg)(H2O)]NO3]
IC50 (CYP 2C19): 10.3 µM | IC50 (CYP 2C8): 10.3 µM | tumor growth ([1]; 4 mg/kg ip daily, 18 days): not effective | survival throughout the experiment ([1]; 6 mg/kg ip daily): only one mouse out of four | Copper staining of liver sections ([1]; 4, 5 and 6 mg/kg): negative for copper deposits | body weight ([1]; 4, 5 and 6 mg/kg): little influence | weight of vital organs ([1]; 4, 5 and 6 mg/kg, except for liver in the 6 mg/kg group): no significant differences | tolerability ([1]; 4 and 5 mg/kg dose regimens): well tolerated | tumor growth ([1]; 5 and 6 mg/kg ip daily): significant tumor growth inhibition | Histopathological examination of heart, liver, kidney and lung ([1]; all the groups): did not show any obvious abnormal changes | necrotic area in the tumor xenografts ([1]; treated groups vs control groups, concentration dependent): higher percentage of necrotic area
